From publication PMC7259601 (PLoS ONE, 2020) come the findings set out here.

Values joined by “and” are separate entries in the source; they are usually repeats but may differ in a detail not shown here. Equal values may be shown once.

One assay deals with T1, rKDM1A (Homo sapiens, UniProt O60341).
T1 construct: purchased BPS Bioscience 50100
In words: Kinetics of inhibition of KDM1A. It counts as biochemical. The settings on record: pure recombinant enzyme, H3K4me2 peptide. The procedure: Time course experiments were performed to assess the rate of inhibition of demethylation of a H3K4me2 peptide mediated by rKDM1A, monitoring the release of H2O2 produced during the reaction using a coupled horseradish peroxidase assay using Amplex Red reagent as a substrate. Conditions were the same as for IC50 determinations, but all reagents were added simultaneously.

Assay [1] relates to KDM1A. In words: Ex vivo KDM1A target engagement in rat brain and PBMCs. More on the design: species or system Sprague-Dawley rats. Here is the method:
. Native protein extracts of cells or tissues were obtained in presence of 25 nM OG-881 chemoprobe according the protocol described in Mascaró et al..
(§1) Luminescent ELISA: for quantification of total amount of KDM1A protein (TOTAL KDM1A), Luminunc Plates Maxisorp (NUNC; #436110) were coated with a monoclonal anti-KDM1A antibody (Abcam; #ab53269) at 2 µg/mL in PBS. For quantification of the fraction not bound to inhibitor (FREE KDM1A), plates were coated with streptavidin (Promega Biotech Ibérica; #Z7041) at 10 µg/mL in PBS. Coating was performed at 4°C O/N. Wells were washed 3 times in PBS, 0.1% Tween-20 and blocked with PBS-BSA 1% (Sigma; #A3059) for 2 hr. A KDM1A calibration curve of full length rKDM1A (Active Motif; #31334) diluted in PBS was included in each plate. Plates were then incubated 1 hr at RT and washed 5 times. […] Plates were centrifuged during 30 sec to 1,500 x g, shaken for 1 min at 100rpm and incubated inside the micropate reader (Infinite 200, Tecan) for 3 min at 25 °C. The relative luminescence units (RLU) readouts were acquired using a 1000 msec integration time and 150 msec settle time.
. […] After raw data processing (robust elimination of outliers according to Grubbs criteria and subtraction of blank signal on technical replicates), the target engagement was calculated as […]

Assay [2] has as its target KDM1A (Homo sapiens, UniProt O60341). In words: Chemoprobe based KDM1A target engagement in THP-1 cells. It counts as cell-based. More on the design: Native protein extracts of cells or tissues were obtained in presence of 25 nM OG-881 chemoprobe; endogenous in cells; host or cells: THP-1. The settings on record: THP-1 cells treated 24 hr. The procedure: Native protein extracts of cells or tissues were obtained in presence of 25 nM OG-881 chemoprobe according the protocol described in Mascaró et al..
as §1
All assays were run as triplicate technical replicates (n = 3). After raw data processing (robust elimination of outliers according to Grubbs criteria and subtraction of blank signal on technical replicates), the target engagement was calculated as […]

The subject of a further assay is SAMP8 mice. In words: Open Field (OF). It counts as in vivo, mouse. The settings on record: 0.32 or 0.96 mg/kg/day. The procedure: Both male and female mice from the senescence accelerated strain SAMP8 and its control SAMR1 of different ages (see Table S3 for details) were used in these studies. Mice were breed in the animal facilities of the Pharmacy Faculty (University of Barcelona), maintained in a at 22 ± 2 °C controlled temperature in a 12 hr light / dark cycle (lights on at 8:00 am; 300 lux/0 lux) with ad libitum access to food (2018 TEKLAD, Harlan) and water. Male mice were housed individually (males) or in groups of 4-5 animals (females) in plastic colony boxes with a sawdust bedding material. […] SAMR1 mice treated with vehicle were included as a control. […] Drug concentration was calculated weekly in function of body weight and corrected in function of drinking water consumption. Cognitive function was evaluated by NORT, social behavior was evaluated by RI and anxiety and motor function were evaluated by EPM and OF. […]
A 50 × 50-cm white plastic arena with 25-cm-high walls was used to analyze spontaneous exploratory behavior. […] The movements of each animal were video recorded during 5 min. Locomotor activity was analyzed by video-tracking over the captured images using SMART® (v 2.5.21 (rat) or v3.0 (mice), PanLab, SLU, Spain).
Novel Object Recognition Test (NORT): Time exploring the novel (NO) and the familiar object (FO) was measured and a discrimination Index (DI) was defined as (NO-FO)/(NO+FO). […]

A further assay deals with T2, Mouse recombinant KDM1B (Mus musculus, UniProt Q8CIG3).
T2 construct: gift: Dr. Andrea Mattevi, University of Pavia
T2 sequence (Q8CIG3 whole entry): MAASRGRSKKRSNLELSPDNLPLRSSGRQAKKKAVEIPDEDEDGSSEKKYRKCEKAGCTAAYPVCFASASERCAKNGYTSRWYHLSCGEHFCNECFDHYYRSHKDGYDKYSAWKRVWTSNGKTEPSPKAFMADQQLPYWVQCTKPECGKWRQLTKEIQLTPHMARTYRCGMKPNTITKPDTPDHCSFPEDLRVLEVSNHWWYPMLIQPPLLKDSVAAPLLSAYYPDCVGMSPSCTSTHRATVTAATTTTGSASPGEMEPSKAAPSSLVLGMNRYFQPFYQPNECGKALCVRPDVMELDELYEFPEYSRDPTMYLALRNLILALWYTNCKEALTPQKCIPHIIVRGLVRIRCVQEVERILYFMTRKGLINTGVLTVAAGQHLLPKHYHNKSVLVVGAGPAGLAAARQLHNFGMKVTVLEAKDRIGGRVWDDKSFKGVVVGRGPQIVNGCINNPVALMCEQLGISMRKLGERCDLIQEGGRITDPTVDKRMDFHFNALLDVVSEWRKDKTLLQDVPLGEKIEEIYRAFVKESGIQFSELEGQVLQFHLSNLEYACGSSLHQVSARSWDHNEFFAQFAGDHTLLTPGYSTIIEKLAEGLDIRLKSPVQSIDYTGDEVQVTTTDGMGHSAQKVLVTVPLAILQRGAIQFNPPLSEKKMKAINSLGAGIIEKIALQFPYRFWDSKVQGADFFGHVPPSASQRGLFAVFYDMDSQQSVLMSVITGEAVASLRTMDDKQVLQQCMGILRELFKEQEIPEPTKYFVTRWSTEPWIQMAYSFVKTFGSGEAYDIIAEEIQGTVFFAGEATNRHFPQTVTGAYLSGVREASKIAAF
In words: KDM1B inhibition assay. Type of assay: biochemical. The procedure:
Mouse recombinant KDM1B protein was kindly provided by Dr. Andrea Mattevi from the University of Pavia. The biochemical activity assay was carried out at room temperature in a similar manner as for KDM1A but using 50 mM HEPES pH 8.5 as the reaction buffer, but with 10 min of incubation of KDM1B in the presence of dimethylated H3K4 peptide at the KMapp of KDM1B.

By EC50 is commonly meant the concentration at which the effect is half-maximal. For orientation: inhibition means the percentage by which the read-out fell short of the control. `Nc1nnc(CN[C@@H]2C[C@H]2c2ccc(OCc3ccccc3)cc2)o1` [ORY-2001, vafidemstat]: the KI (inactivation) at rKDM1A was determined as 1800 nM. The “time for brain target engagement levels to return to baseline” value in the assay with KDM1A [1] (S2B Fig) is on record as ~ 3 days. In the assay on KDM1A [1] (rat PBMCs and brain, days of administration), the “time to maximum target engagement” value is 5 days. The concentration for a half-maximal effect (EC50) on KDM1A [2] was ~1 nM and 1 nM. In addition, the “locomotor activity in the OF test” value in the assay on SAMP8 mice is “no significant genotype or treatment differences”. In addition, the inhibition at 10 µM at Mouse recombinant KDM1B worked out at 7%.
